This note sets out measurements from the METLIN SMRT retention time set (Domingo-Almenara et al. 2019).

This data set can be described thus: gradient 5% acetonitrile 3 min, to 50% in 2 min, to 85% in 15 min, held 3 min, 100 µL/min. Conditions: column: Zorbax Extend-C18 2.1 x 50 mm; eluents: water / acetonitrile, 0.1% formic acid. In short, it runs like this: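 Retention times of pure standards were taken from adduct peaks that were selected by computer and manually inspected. Over 3 months, mixtures of ~100 molecules were run by HPLC–quadrupole time-of-flight mass spectrometry in positive and negative ionization mode. The Zorbax Extend-C18 column (2.1 × 50 mm, 1.8 μm) ran at 100 μL/min in water and acetonitrile, each containing 0.1% formic acid, with 40 μL dead volume and 900 μL dwell volume.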
Consider `O=C1C(=O)N(Cc2ccc(C(=O)N3CCCC3)cc2)CCN1Cc1ccc(F)cc1`, for which the RP-LC retention time turned out to be 702 s.
Consider `CCc1ccc(NC(=O)Cn2c(=O)n(-c3ccc(F)cc3)c(=O)c3c2cc(C)n3C)cc1`, for which the RP-LC retention time came to 888 s.
Next, `CC1=C(C#N)C(C)(C)C(C#N)=C(C)N1`: 804 s; `Cc1nnc(N2CCCC(C(=O)NCc3ccccc3F)C2)c2nn(-c3ccc(Cl)cc3)c(C)c12` (stereo not drawn): 771 s.
Take `CC(CCNc1ccc(-c2nc(-c3ccc(F)cc3)no2)cn1)N1CCCCCC1` (stereo not drawn): the RP-LC retention time is 768 s.
In turn, `CC1=C(c2ccccc2)S(=O)(=O)N=C1N1CCCN(C(=O)NCCC(C)C)CC1` returned an RP-LC retention time of 818 s.
Compound `CC1CCN(C(=O)C2=CN(c3ccc4c(c3)OCCO4)c3ccccc3S2(=O)=O)CC1` returned an RP-LC retention time of 899 s.
For `CCOc1coc(C(=O)NCc2ccccc2OC)cc1=O`, the RP-LC retention time worked out at 644 s.
`Cc1nc(CC(=O)Nc2nc(-c3ccc(Cl)cc3)c(C)s2)cs1`: the RP-LC retention time was found to be 983 s.
In the case of `CC1=C(c2ccc(C)c(C)c2)S(=O)(=O)N=C1N1CCCN(C(=O)c2cccnc2)CC1` it was 788 s; in that of `CCn1c(=O)c2c(cc(C)n2C)n(CC(=O)Nc2ccccc2C)c1=O`, 776 s.
Compound `O=C(Cn1ncc2c(N3CCN(c4ccccn4)CC3)ncnc21)Nc1cccc(F)c1` returned an RP-LC retention time of 563 s.
Regarding `Cc1nc2cc(-c3noc(Cc4ccc(F)cc4)n3)ccc2o1`, the RP-LC retention time was found to be 983 s.
`CN1CCN(CCCNC(=O)C2CCc3sc(C(=O)N4CCCCCC4)cc3C2)CC1` (stereo not drawn) yielded an RP-LC retention time of 581 s.
Compound `COc1ccc(-c2nccc(C3CCCN(C(=O)c4ccccc4)C3)n2)cc1` (stereo not drawn) registered an RP-LC retention time of 967 s.
`CCc1noc(NC(C)=O)c1-c1ccc(C)c(S(=O)(=O)Nc2c(Cl)cc(OC)cc2OC)c1` had an RP-LC retention time of 827 s.
With `CN1CCN(CCCNC(=O)CN2C(=O)C3CCCCN3c3ccc(C(=O)N(C)C)cc32)CC1` (stereo not drawn), the RP-LC retention time was found to be 572 s.
Take `CC(=O)Nc1ccc(NC(=O)C2CC(=O)N(CCc3c[nH]c4ccc(F)cc34)C2)cc1` (stereo not drawn): the RP-LC retention time was determined as 675 s.
Next, `CS(=O)(=O)N1CCc2cc(NC(=O)Nc3ccc(Br)cc3F)ccc21`: 954 s; `CCN1C(=O)NC(c2cccc(F)c2)C2=C1CN(CCC(=O)N1CCCC1)C2=O` (stereo not drawn): 606 s; `O=C(Nc1c(-c2ccc(F)cc2)nc2ccccn12)c1ccccc1F`: 639 s.
Next, `Cc1nn(-c2nc(-c3ccc(Cl)cc3)cs2)c(C)c1CC(=O)N1CCN(c2ccccc2)CC1`: 1290 s.
Next, `O=C(NCC1CC1)C1CCN(c2nc3ccsc3c(=O)n2-c2ccccc2)CC1`: 747 s.
For `Clc1ccc(Cl)c(-c2ccc(CNCC3CCNCC3)o2)c1`, the RP-LC retention time turned out to be 574 s.
In the case of `Cc1ccc(N2CC(c3nc(-c4ccc5c(c4)nc(C)c(=O)n5C)no3)CC2=O)cc1` (stereo not drawn) it was 837 s; in that of `Cc1cc(C)cc(N2CCn3c2nc2c3c(=O)n(CC(=O)O)c(=O)n2C)c1`, 784 s.
In the case of `CCN1CCN(c2nc3cc(C(=O)OC)ccc3c(=O)n2-c2cc(OC)cc(OC)c2)CC1` it was 661 s; in that of `COc1ccc2c(c1)C1(CCN(C(=O)c3ccccc3Br)C1)C(=O)N2` (stereo not drawn), 750 s.
Compound `CCn1c(C(=O)NCCCN2CCCC(C)C2)cc2c(-c3cccs3)nn(-c3ccccc3)c21` (stereo not drawn) yielded an RP-LC retention time of 802 s.
`O=C(NC1CCCC1)NC1CCN(c2ccccc2)C1=O` (stereo not drawn) registered an RP-LC retention time of 726 s.
`N#Cc1ccc(NC(=O)Cn2cccc(-c3nc(-c4ccc(Br)cc4)no3)c2=O)cc1`: the RP-LC retention time is 952 s.
As for `O=C(Nc1ccccc1F)N1CC(Oc2ccc(-c3nc(-c4ccccc4)no3)cc2)C1`, the RP-LC retention time came to 1130 s.
Regarding `O=C(NCc1cccc(Cl)c1)C1CCCN(c2nc3ncccc3n3cccc23)C1` (stereo not drawn), the RP-LC retention time is 664 s.
`COc1cc(N2C(=O)CC(N3CCC(C(N)=O)CC3)C2=O)cc(OC)c1OC` (stereo not drawn) gave an RP-LC retention time of 563 s.
`Cc1ccsc1C(=O)Nc1cccn2nc(C3CCC3)nc12` gave an RP-LC retention time of 1030 s.
In the case of `Cc1ccc(-n2nc(C)c3sc(N4CCCC(C(=O)NC(C)CCc5ccccc5)C4)nc32)cc1` (stereo not drawn) it was 1300 s; in that of `Cc1nnc(NC(=O)CN2CCc3nc(NC(=O)c4cnccn4)sc3C2)s1`, 546 s.
Consider `COc1ccccc1-n1c(SCC(=O)Nc2cc(C)on2)nc2c(c1=O)SCC2`, for which the RP-LC retention time turned out to be 728 s.
Take `O=C(Nc1ccc(Cl)cc1)N1CCC(N2CCN(Cc3ccc(F)cc3)C(=O)C2=O)CC1`: the RP-LC retention time was 799 s.
Compound `CC1(C(=O)NC2CCCCCCC2)CN(S(C)(=O)=O)CC(=O)N1Cc1cccc(F)c1` (stereo not drawn) had an RP-LC retention time of 956 s.
Regarding `O=C1COc2ccccc2N1Cc1nc(-c2cccc(F)c2)no1`, the RP-LC retention time is 990 s.
In the case of `Cc1cc(C)n(-c2ccnc(N3CCC(C(=O)NCc4ccc(F)cc4)CC3)n2)n1`, the RP-LC retention time was 833 s.
The compound `O=C(Nc1ccc(F)c(F)c1)C1CCCN(S(=O)(=O)Cc2ccccc2)C1` (stereo not drawn) showed an RP-LC retention time of 998 s.
In turn, `Cc1[nH]ncc1CNC(=O)c1ccc2nc(Cc3ccccc3F)oc2c1` came in with an RP-LC retention time of 689 s.
For `Cn1cc(CCN2CCN(S(=O)(=O)c3cccs3)CC2)c2cccnc21`, the RP-LC retention time was 604 s.
`CCOc1c(C)cc(S(=O)(=O)NCC(C)(O)COC)cc1C` (stereo not drawn) returned an RP-LC retention time of 752 s.
For the compound `CC1CN(C2CCCCC2)c2nc3c(c(=O)n(CCN4CCCCC4)c(=O)n3C)n2C1` (stereo not drawn), the RP-LC retention time came out at 722 s.
Next, `O=C(O)c1ccc(Nc2c(-c3cccc(O)c3)nc3cnccn23)cc1`: 620 s; `COc1ccc(C(C)NC(=O)c2cc(NC(C)=O)cc3nc(C)ccc23)cc1OC` (stereo not drawn): 599 s.
In the case of `NS(=O)(=O)c1ccc(NC(=O)c2ccc(Br)cc2F)cc1` it was 729 s.
`COc1cc(C(=O)Oc2ccc(/C=C/c3ccccn3)cc2)cc(OC)c1OC` registered an RP-LC retention time of 689 s.
As for `CN(CC(=O)O)c1nc2c(F)cccc2s1`, the RP-LC retention time was 689 s.
For the compound `Cn1cccc1C(=O)Nc1cnn(-c2ncc(N3CCSCC3)cn2)c1`, the RP-LC retention time is 768 s.
`COc1cccc(-c2nnc(Cc3nc(-c4ccccc4F)no3)o2)c1` displayed an RP-LC retention time of 1020 s.
Next, `COCCn1c(C)c(C)c(S(=O)(=O)c2ccc(C)cc2)c1NC(=O)C1CCCO1` (stereo not drawn): 859 s; `CCS(=O)(=O)N1CCC(F)(c2nc(-c3ccccc3)no2)CC1`: 952 s; `O=C(c1ccc(F)c(F)c1)N1CCOC(c2ccccc2)C1` (stereo not drawn): 845 s.
As for `O=C(c1ccccc1F)N1CCC(C(=O)N2CCc3ccccc32)CC1`, the RP-LC retention time is 822 s.
